# Reference: ChEMBL document CHEMBL3124745, “4-Bicyclic heteroaryl-piperidine derivatives as potent, orally bioavailable stearoyl-CoA desaturase-1 (SCD1) inhibitors: part 2. Pyridazine-based analogs” (Bioorg Med Chem Lett, 2014)
# Columns and labels:
# [1] = Metabolic stability in rat liver microsomes assessed as compound remaining measured at 10 mins; assay type: ADME; conditions: read-out: Stability
# [2] = Metabolic stability in human liver microsomes assessed as compound remaining measured at 10 mins; assay type: ADME; conditions: read-out: Stability
# Acyl-CoA desaturase 1 = molecular target: T1, Acyl-CoA desaturase 1 (Rattus norvegicus, UniProt P07308); test: Inhibition of SCD1 in Sprague-Dawley rat liver microsomes using stearoyl-[9,10-3H]-CoA as substrate
# T1 sequence (P07308 whole entry): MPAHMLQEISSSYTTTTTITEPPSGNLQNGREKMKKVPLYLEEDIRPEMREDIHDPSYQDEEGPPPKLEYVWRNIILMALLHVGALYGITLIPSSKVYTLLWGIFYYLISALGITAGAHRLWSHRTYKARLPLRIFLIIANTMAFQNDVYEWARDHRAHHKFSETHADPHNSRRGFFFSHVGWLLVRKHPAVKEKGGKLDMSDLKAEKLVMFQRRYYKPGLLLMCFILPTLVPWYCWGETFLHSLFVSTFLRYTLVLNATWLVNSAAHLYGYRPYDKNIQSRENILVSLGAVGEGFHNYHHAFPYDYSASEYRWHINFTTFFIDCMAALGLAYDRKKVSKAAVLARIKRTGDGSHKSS
# Mus musculus [3] = test: Antiobesity activity in diet-induced obese C57BL/6 mouse assessed as change in body weight at 30 mg/kg, po qd for 10 days (reference value: 2.8 +/- 0.3 g); assay type: functional
# Stearoyl-CoA desaturase = molecular target: T2, Stearoyl-CoA desaturase (Homo sapiens, UniProt O00767); test: Inhibition of SCD1 in human A431 cells assessed as [13C]-palmitic acid conversion to [13C]-palmitoleic acid after 4 hrs by LC/MS analysis; assay type: cell-based, A-431
# T2 sequence (O00767 whole entry): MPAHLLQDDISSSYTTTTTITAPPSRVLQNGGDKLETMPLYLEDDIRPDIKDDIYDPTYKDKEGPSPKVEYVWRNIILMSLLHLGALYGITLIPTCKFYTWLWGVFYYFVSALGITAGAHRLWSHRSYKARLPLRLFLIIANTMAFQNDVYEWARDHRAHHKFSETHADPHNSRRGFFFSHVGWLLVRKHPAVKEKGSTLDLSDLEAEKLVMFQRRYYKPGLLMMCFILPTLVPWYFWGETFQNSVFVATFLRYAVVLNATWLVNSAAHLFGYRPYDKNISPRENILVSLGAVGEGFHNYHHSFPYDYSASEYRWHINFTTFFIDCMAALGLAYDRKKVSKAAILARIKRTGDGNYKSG
# Rattus norvegicus [4] = test: Toxicity in Zucker fa/fa rat assessed as reduction in food intake at 10 mg/kg after 22 days relative to control; assay type: organism-based; set-up: dose 10 mg/kg; scale not given: the % may be the effect or the level left; conditions: in vivo, 528 h
# Rattus norvegicus [5] = test: Antiobesity activity in Zucker fa/fa rat assessed as effect on body weight gain at 1 mg/kg measured on day 15 (reference value: 103 +/- 4 g); assay type: functional
# Rattus norvegicus [6] = test: Antiobesity activity in Zucker fa/fa rat assessed as effect on body weight gain at 10 mg/kg measured on day 26 (reference value: 161 +/- 8 g); assay type: functional
# [7] = Clearance in Sprague-Dawley rat at 2 mg/kg, iv; assay type: ADME, organism-based; set-up: dose 2 mg/kg, route intravenous; conditions: in vivo
# Rattus norvegicus [8] = test: Antiobesity activity in Zucker fa/fa rat assessed as C18:1 to C18:0 plasma desaturation index at 10 mg/kg after 26 days (reference value: 2.16 +/- 0.07); assay type: functional
# [9] = Volume of distribution in Sprague-Dawley rat at 2 mg/kg, iv; assay type: ADME, organism-based; set-up: dose 2 mg/kg, route intravenous; conditions: in vivo
# Rattus norvegicus [10] = test: Antiobesity activity in Zucker fa/fa rat assessed as effect on body weight gain at 10 mg/kg measured on day 22 (reference value: 142 +/- 4 g); assay type: functional
# Rattus norvegicus [11] = test: Antiobesity activity in Zucker fa/fa rat assessed as reduction in body weight gain at 10 mg/kg after 26 days relative to control; assay type: functional; set-up: scale not given: the % may be the effect or the level left
# [12] = AUC (24 hrs) in Sprague-Dawley rat at 10 mg/kg, po; assay type: ADME, organism-based; set-up: time < 24 hr, dose 10 mg/kg, route oral; conditions: plasma
# Rattus norvegicus [13] = test: Hepatotoxicity in Zucker fa/fa rat assessed as increase in ALT level at 1 to 10 mg/kg; assay type: toxicity, organism-based; set-up: dose 1-10 mg/kg; conditions: in vivo
# [14] = Oral bioavailability in Sprague-Dawley rat at 10 mg/kg; assay type: ADME, organism-based; conditions: in vivo
# Mus musculus [15] = test: Toxicity in diet-induced obese C57BL/6 mouse assessed as narrow eye fissure at 30 mg/kg, po; assay type: organism-based; set-up: dose 30 mg/kg, route oral; conditions: in vivo
# Rattus norvegicus [16] = test: Antiobesity activity in Zucker fa/fa rat assessed as effect on body weight gain at 1 mg/kg measured on day 26 (reference value: 161 +/- 8 g); assay type: functional
# Rattus norvegicus [17] = test: Antiobesity activity in Zucker fa/fa rat assessed as effect on body weight gain at 3 mg/kg measured on day 8 (reference value: 61 +/- 7 g); assay type: functional
# Rattus norvegicus [18] = test: Antiobesity activity in Zucker fa/fa rat assessed as effect on body weight gain at 3 mg/kg measured on day 26 (reference value: 161 +/- 8 g); assay type: functional
# Rattus norvegicus [19] = test: Antiobesity activity in Zucker fa/fa rat assessed as effect on body weight gain at 10 mg/kg measured on day 15 (reference value: 103 +/- 4 g); assay type: functional
# Rattus norvegicus [20] = organism: Rattus norvegicus; test: Antiobesity activity in Zucker fa/fa rat assessed as reduction in body weight gain after 26 days; assay type: functional, organism-based
# [21] = Cmax in Sprague-Dawley rat at 10 mg/kg, po; assay type: ADME, organism-based; set-up: dose 10 mg/kg, route oral; conditions: in vivo
# [22] = AUC (24 hrs) in Zucker fa/fa rat at 10 mg/kg, po; assay type: ADME, organism-based; set-up: time < 24 hr, dose 10 mg/kg, route oral; conditions: plasma
# Rattus norvegicus [23] = test: Antiobesity activity in Zucker fa/fa rat assessed as effect on body weight gain at 10 mg/kg measured on day 8 (reference value: 61 +/- 7 g); assay type: functional
# Rattus norvegicus [24] = organism: Rattus norvegicus; test: Antiobesity activity in Zucker fa/fa rat assessed as decrease in C18:1 to C18:0 plasma desaturation index after 26 days; assay type: functional, organism-based
# Rattus norvegicus [25] = test: Antiobesity activity in Zucker fa/fa rat assessed as effect on body weight gain at 1 mg/kg measured on day 22 (reference value: 142 +/- 4 g); assay type: functional
# Rattus norvegicus [26] = test: Antiobesity activity in Zucker fa/fa rat assessed as effect on body weight gain at 3 mg/kg measured on day 22 (reference value: 142 +/- 4 g); assay type: functional
# [27] = Cmax in Zucker fa/fa rat at 10 mg/kg, po; assay type: ADME, organism-based; set-up: dose 10 mg/kg, route oral; conditions: in vivo
# Rattus norvegicus [28] = test: Toxicity in Zucker fa/fa rat assessed as change in food intake at 1 to 3 mg/kg after 26 days; assay type: organism-based; set-up: dose 1-3 mg/kg; conditions: in vivo, 624 h
# Rattus norvegicus [29] = test: Antiobesity activity in Zucker fa/fa rat assessed as reduction in body weight gain at 3 mg/kg after 26 days relative to control; assay type: functional; set-up: scale not given: the % may be the effect or the level left
# Rattus norvegicus [30] = test: Antiobesity activity in Zucker fa/fa rat assessed as reduction in body weight gain at 1 mg/kg after 26 days relative to control; assay type: functional; set-up: scale not given: the % may be the effect or the level left
# Rattus norvegicus [31] = test: Antiobesity activity in Zucker fa/fa rat assessed as C16:1 to C16:0 plasma desaturation index at 3 mg/kg after 26 days (reference value: 0.183 +/- 0.012); assay type: functional
# [32] = Oral bioavailability in Zucker fa/fa rat at 10 mg/kg; assay type: ADME, organism-based; conditions: in vivo
# Rattus norvegicus [33] = test: Hepatotoxicity in Zucker fa/fa rat assessed as increase in AST level at 1 to 10 mg/kg; assay type: toxicity, organism-based; set-up: dose 1-10 mg/kg; conditions: in vivo
# Rattus norvegicus [34] = test: Antiobesity activity in Zucker fa/fa rat assessed as C16:1 to C16:0 plasma desaturation index at 10 mg/kg after 26 days (reference value: 0.183 +/- 0.012); assay type: functional
# Rattus norvegicus [35] = organism: Rattus norvegicus; test: Antiobesity activity in Zucker fa/fa rat assessed as decrease in C16:1 to C16:0 plasma desaturation index after 26 days; assay type: functional, organism-based
# Rattus norvegicus [36] = test: Toxicity in Zucker fa/fa rat assessed as narrow eye fissure at 10 mg/kg; assay type: organism-based; set-up: dose 10 mg/kg; conditions: in vivo
# Rattus norvegicus [37] = test: Antiobesity activity in Zucker fa/fa rat assessed as effect on body weight gain at 1 mg/kg measured on day 8 (reference value: 61 +/- 7 g); assay type: functional
# Rattus norvegicus [38] = test: Antiobesity activity in Zucker fa/fa rat assessed as effect on body weight gain at 3 mg/kg measured on day 15 (reference value: 103 +/- 4 g); assay type: functional
structure (smiles),measurement,setting,value
CCOCCn1cc(-c2ccc(N3CCC(N4CCc5ccc(F)cc54)CC3)nn2)cn1,remaining at 10 min,[1],< 50%
same,remaining at 10 min,[2],< 50%
OCCn1cc(-c2ccc(N3CCC(N4CCc5ccc(F)cc54)CC3)nn2)cn1,IC50,Acyl-CoA desaturase 1,22 nM
same,Activity,Mus musculus [3],0.5 g
Cn1cc(-c2ccc(N3CCC(n4ncc5ccc(F)cc54)CC3)nn2)cn1,IC50,Stearoyl-CoA desaturase,51 nM
same,Activity,Mus musculus [3],-3.3 g
Cc1ccc(-c2ccc(N3CCC(N4CCc5ccc(F)cc54)CC3)nn2)cc1,IC50,Stearoyl-CoA desaturase,11 nM
OCc1cnn(-c2ccc(N3CCC(N4CCc5ccc(F)cc54)CC3)nn2)c1,IC50,Stearoyl-CoA desaturase,6 nM
same,IC50,Acyl-CoA desaturase 1,17 nM
same,Activity,Mus musculus [3],1.2 g
CCCn1cc(-c2ccc(N3CCC(N4CCc5ccc(F)cc54)CC3)nn2)cn1,remaining at 10 min,[1],< 50%
same,remaining at 10 min,[2],< 50%
OCc1ccc(-c2ccc(N3CCC(N4CCc5ccc(F)cc54)CC3)nn2)cn1,Activity,Mus musculus [3],-2.2 g
Cc1ccc(-c2ccc(N3CCC(N4CCc5ccc(F)cc54)CC3)nn2)cn1,IC50,Acyl-CoA desaturase 1,13 nM
CCOc1cnn(-c2ccc(N3CCC(N4CCc5ccc(F)cc54)CC3)nn2)c1,remaining at 10 min,[1],< 50%
same,IC50,Stearoyl-CoA desaturase,9 nM
same,IC50,Acyl-CoA desaturase 1,8 nM
same,remaining at 10 min,[2],< 50%
CN(C)c1ccc(-c2ccc(N3CCC(N4CCc5ccc(F)cc54)CC3)nn2)cn1,IC50,Stearoyl-CoA desaturase,30 nM
same,IC50,Acyl-CoA desaturase 1,17 nM
Cn1cc(-c2ccc(N3CCC(N4CCc5ccc(F)cc54)CC3)nn2)cn1,Activity,Rattus norvegicus [4],10%
same,Activity,Rattus norvegicus [5],80 g
same,Activity,Rattus norvegicus [6],78 g
same,clearance,[7],3.3 mL/min/kg
same,Activity,Rattus norvegicus [8],0.92
same,Vd,[9],0.52 L/kg
same,Activity,Rattus norvegicus [10],72 g
same,Activity,Rattus norvegicus [11],51%
same,AUC at 24 h,[12],38800 ng·h/mL
same,Activity,Rattus norvegicus [13],Non-toxic
same,bioavailability,[14],105%
same,Activity,Mus musculus [15],Toxic
same,Activity,Rattus norvegicus [16],133 g
same,Activity,Rattus norvegicus [17],44 g
same,Activity,Rattus norvegicus [18],125 g
same,Activity,Rattus norvegicus [19],57 g
same,Activity,Rattus norvegicus [20],Dose-dependent effect
same,Cmax,[21],4400 ng/mL
same,AUC at 24 h,[22],10800 ng·h/mL
same,Activity,Rattus norvegicus [23],29 g
same,Activity,Rattus norvegicus [24],Dose-dependent effect
same,Activity,Rattus norvegicus [25],116 g
same,Activity,Rattus norvegicus [26],112 g
same,Cmax,[27],1600 ng/mL
same,Activity,Mus musculus [3],-2.1 g
same,Activity,Rattus norvegicus [28],Non-toxic
same,Activity,Rattus norvegicus [29],22%
same,Activity,Rattus norvegicus [30],17%
same,Activity,Rattus norvegicus [31],0.088
same,bioavailability,[32],11%
same,Activity,Rattus norvegicus [33],Non-toxic
same,Activity,Rattus norvegicus [34],0.078
same,Activity,Rattus norvegicus [35],Dose-dependent effect
same,Activity,Rattus norvegicus [36],Toxic
same,Activity,Rattus norvegicus [37],42 g
same,Activity,Rattus norvegicus [38],80 g
CCn1cc(-c2ccc(N3CCC(N4CCc5ccc(F)cc54)CC3)nn2)cn1,IC50,Stearoyl-CoA desaturase,30 nM
Cc1cnc(-c2ccc(N3CCC(N4CCc5ccc(F)cc54)CC3)nn2)s1,IC50,Stearoyl-CoA desaturase,12 nM
